We go through 2 compounds from US20090281093A1, “ANTI-INFLAMMATORY COMPOUNDS” (C.T.G. PHARMA S.R.L., priority 2005, published 2009).

The data set can be described thus: Activity and safety: five-day once daily gavage treatment of rats, deaths and autopsy of the gastrointestinal tract. Format: in vivo. The note with it: male rats, once daily by gavage for five days, diclofenac 20 mg/kg, compound of example 1 36 mg/kg; for % deaths: 10 animals/group; for % gastrointestinal ulcer: autopsy at fifth day 6 hr after treatment. The method, then: Thirty male rats (150-200 g) were divided into three groups of 10 animals/group and treated with vehicle, diclofenac (20 mg/kg) and the compound of example 1 (36 mg/kg) for five days once daily by gavage. The vehicle consisted in 1 mL of acidified aqueous solution. At the fifth day, survival animals were sacrificed 6 hr after the treatment, by an overdose of ether, and autopsied to detect any pathological changes, particularly in the gastrointestinal tract. Prostaglandin E2 was evaluated in the liver homogenate by standard enzyme immunoassay procedure as described by Warner T D et al. (J.P.E.T. 2004, 310, 642-7).

For the compound `O=C(Cc1ccccc1Nc1c(Cl)cccc1Cl)Oc1ccc(-c2cc(=S)ss2)cc1` [Compound example 1, 2-[(2,6-dichlorophenyl)amino]benzeneacetic acid 4-(3H-1,2,dithiole-3-thione-5-yl)-phenyl ester], the “% deaths” value was determined as 0% and the “% gastrointestinal ulcer” value is 0%.

With `O=C(O)Cc1ccccc1Nc1c(Cl)cccc1Cl` [Diclofenac], the “% deaths” value was 70% and the “% gastrointestinal ulcer” value is on record as 100%.
